Test results published in US20080131432A1, “Method of treating the chemotoxic effects of chemotherapeutic drugs on brain tissue” (University of Kentucky Research Foundation, priority 2005, published 2008).
“Also recorded” adds a separate entry of the source. Structures can show the parent of a compound that is named as a salt.

How the values were obtained:
[1] = test system: cortical and hippocampal cells; test: TUNEL-positive apoptotic cell death in cortical and hippocampal regions; format: in vivo, mouse; details: 3 and 72 hours after ADR, vs saline
Procedure: (A) Brain cryosection tissues were treated with biotinylated rTdT, followed by streptavidin peroxidase and diaminobenzidine-hydrogen peroxide, and counterstained with methyl-green. […] (For interpretation of the references to colour in this figure legend, the reader is referred to the web version of this article.)

TNF α [2] = test: TNF α levels in brain tissue homogenates (Western blot); format: in vivo, mouse; details: 3 hours after single dose, vs saline control
Procedure: Brains perfused with PBS were isolated and dissected from four groups of mice 3 hours post injection of a single dose of ADR, anti-TNF α antibody, anti-TNF α antibody immediately followed by ADR, or saline treated mice. Brain was isolated and placed in 0.1 M PBS, pH 7.4 containing protease inhibitors, 4 μg leupeptin, 4 μg pepstatin, and 5 μg aprotinin, washed and minced in ice-cold PBS containing protease inhibitors. […] Protein concentration of brain homogenate was determined by the Bradford assay (Bradford, 1976).
Perfused brain homogenates and isolated mitochondrial proteins were size-separated via 12.5% denaturing polyacrylamide gel electrophoresis (SDS-PAGE) and transferred to a nitrocellulose membrane. The membrane was blocked for 1 hour at room temperature in blocking solution consisting of 5% non-fat dried milk, 0.5% Tween-20 and Tris-buffered saline (TBST), pH 7.9. […] Immunoreactivities of the protein bands were detected by enhanced chemiluminescence autoradiography (ECL, Amersham Phamacia Biotech, Arlington Heights, Ill.) as described by the manufacturer.

[3] = Localization of ADR in brain tissue (inverted fluorescence microscope); format: in vivo; details: mouse brain 3 hours after 20 mg/kg ADR i.p.; hydrochloride
Procedure: Eight-week-old male B6C3 mice (25-30 g) were kept under standard conditions. The mice were injected in a single intraperitoneal (i.p.) dose of 20 mg/kg adriamycin (Doxorubicin hydrochloride, […] Sicor Phamaceuticals, Inc., Irvine, Calif.), or the same volume of saline as control for 3 hours. […] Controls consisted of anti-TNF α antibody alone, or saline in the same total volume. All results were obtained from at least three separate experiments. Mice were euthanized by the i.p. injection of 65 mg/kg of nembutal (Sodium pentobarbital, Abbott Laboratories, North Chicago, Ill.), and were perfused via cardiac puncture initially with 0.1 M phosphate buffered saline (PBS), pH 7.4, and subsequent fixation with 4% paraformaldehyde. […] The sections were prepared for immunohistochemistry and detection of ADR. ADR in brain tissue slices was directly visualized using an inverted fluorescence microscope, FIG. 1 (excitation filter 550 nm, and barrier filter 590 nm). Photomicrographs were taken with an Olympus MagnaFire digital camera (Olympus, America, Melville, N.Y.).

TNF α [4] = test: TNF α levels in serum (mouse TNF-α ELISA); format: in vivo
Procedure: Mice were treated with 20 mg/kg ADR or saline as control. Blood samples were collected at 1, 3, 6, 9, 24 hours and allowed to clot at 2-8° C. overnight. Serum samples were used to measure TNF α levels, according to the mouse enzyme-linked immunosorbent assay following the manufacturers' instructions (mouse TNF-α/TNFSF1A immunoassay, R&D Systems, Minneapolis, MN). The TNF α concentration in the sample was calculated from a recombinant mouse TNF α standard curve. The minimum detection limit is typically less than 5.1 pg/mL.
8-week-old male B6C3 mice (25-30 g) were kept under standard conditions. Mice were injected with a single intraperitoneal (i.p.) treatment with adriamycin (doxorubicin hydrochloride, 20 mg/kg), TNF-α, anti-mouse TNF-antibody (40 ng/kg), dipropylenetriamine NONOate (DPTA NONOate, […]), lipopolysaccharide (LPS 1 mg/kg), NG-nitro-L-arginine-methyl esther (L-NAME, 10 mg/kg) or pre-immune IgG.
Mice were treated with 20 mg/kg ADR, TNF-α, anti-mouse TNF-antibody, dipropylenetriamine NONOate, lipopolysaccharide, NG-nitro-L-arginine-methyl esther or pre-immune IgG, as well as saline as control. Blood samples were collected at 3 hours after ADR treatment and allowed to clot at 2-8° C. overnight. Serum samples were used to measure TNF levels, according to the mouse enzyme-linked immunosorbent assay following the manufacturers' instructions (mouse TNF-α/TNFSF1A immunoassay, R&D Systems, Minneapolis, Minn.). The TNF concentration in the sample was calculated from a recombinant mouse TNF standard curve. The minimum detection limit is typically less than 5.1 pg/mL.

[5] = in vivo; cited from earlier work
3-nitrotyrosine = test: Nitrotyrosine-adducted proteins in isolated brain mitochondria (slot blot); format: in vivo, mouse; details: 3 hours after ADR 20 mg/kg, hydrochloride
Procedure: 3-Nitrotyrosine levels, a peroxynitrite reaction product marker, were determined as described previously (Lauderback et al. 2001). Briefly, 5 μg isolated mitochondrial proteins were incubated with Laemmli sample buffer (0.125 M Trisma base, pH 6.8, 4% SDS, 20% glycerol) for 20 minutes, and then 250 ng protein were blotted onto the nitrocellulose membrane using a slot-blot apparatus. The membrane was rinsed with TBST buffer, blocked by incubation in the presence of 5% BSA, followed by incubation with rabbit polyclonal anti-nitrotyrosine antibody as primary antibody for 1 h. The membranes were washed with TBST buffer and further incubated with goat anti-rabbit horseradish peroxidase-conjugated secondary antibody for 1 h. After incubation with secondary antibody, the membrane was washed twice with TBST and once in TBS (TBS without 0.05% Tween-20). Immunoreactivities of the protein bands were detected by ECL (Amersham Phamacia Biotech) as described by the manufacturer. Blots were scanned with Adobe Photoshop and quantified by the densitometry method (Bio-Rad).

[6] = test system: mitochondrial respiration complex II; test: Brain mitochondrial respiration, complex II (succinate); format: in vivo, mouse; details: succinate as substrate, after ADR
Procedure: Mice were perfused via cardiac puncture with cold mitochondrial isolation buffer, the brain promptly removed, the cerebellum dissected away, and mitochondria immediately isolated from the freshly brain by a modification of the method described by Mattiazzi et al. (2002). Brain mitochondria were isolated in cold mitochondrial isolation buffer, containing 0.07 M sucrose, 0.22 M mannitol, 20 mM HEPES, 1 mM EGTA, and 1% bovine serum albumin, pH 7.2. Tissues were homogenized with a Dounce homogenizer and centrifuged at 1,500×g at 4° C. for 5 minutes before transferring the supernatant. The pellets were resuspended and centrifuged at 1,500×g at 4° C. for 5 minutes. […] Protein concentration of isolated mitochondria was determined by the Bradford assay (Bradford, 1976). […]
Mitochondrial respiration was determined using Clark-type polarographic oxygen sensors (Hansatech Instruments, Kings Lynn, Norfolk, UK) to measure the rate of oxygen consumption. […] Oxygen consumption was measured with either pyruvate (10 mM) plus malate (10 mM) or succinate (10 mM) as substrates for respiration from complex I or complex II in the absence of exogenous ADP (state II) and after addition of 300 mM ADP (state III respiration). […] Respiration control ratios (RCR) were calculated as the ratios of state III and state II respiration as described previously by Estabrook (1967). […]

COc1cccc2c1C(=O)c1c(O)c3c(c(O)c1C2=O)C[C@@](O)(C(=O)CO)C[C@@H]3O[C@H]1C[C@H](N)[C@H](O)[C@H](C)O1 [ADR, Doxorubicin hydrochloride]
TUNEL-positive apoptotic cells in cortex and hippocampus [1]: increased number of apoptotic cells | TNF α levels in brain tissue homogenates (TNF α [2]): significantly increased | ADR orange-red fluorescence in areas outside the blood brain barrier (choroid plexus) [3]: observed in several areas outside the blood brain barrier, including the choroid plexus; also recorded: apparent in the choroid plexus | ADR orange-red fluorescence in cortex and hippocampus [3]: not observed in cortex and hippocampus; also recorded: not detected | Time course of increased serum TNF α (TNF α [4]; 20 mg/kg ADR, blood at 1, 3, 6, 9, 24 hours, hydrochloride): detectable as early as 1 hour and were sustained throughout a 24 hour period; also recorded: increased at the earliest time point examined | TNF-α level in serum (circulating TNF-α) (TNF α [4]; iNOSKO mice, 3 hours after treatment): significantly elevated | TNF α level in serum (circulating TNF α) (TNF α [4]; wild-type mice, 3 hours after single i.p. treatment, vs saline control, hydrochloride): significantly higher; also recorded: significantly elevated | Crossing of the blood brain barrier [5]: does not cross the blood brain barrier | Tyrosine-nitrated proteins in brain mitochondria (3-nitrotyrosine; iNOSKO mice): no difference with controls | Tyrosine-nitrated proteins in brain mitochondria (3-nitrotyrosine; wild-type mice): significantly increased protein nitration | Brain mitochondrial respiration complex II [6]: no effect
